The source of these data is patent publication US5525626A (priority 1989, dated 1996).

Entries after “also recorded” stand apart in the source; their conditions may differ.

The subject of assay [1] is A 431 cells. Description: growth curve, epidermoidal carcinoma cells. The format is cell-based, human. The conditions noted are these: for Cell count: 10 μM/ml. How it is done: (§1) The neuroblastoma cell line and the three glioblastoma cell lines were cultivated in Ham's F10 medium enriched with 10% fetal calf serum (FCS) and the usual quantity of penicillin, streptomycin (Pen/Strep) and glutamine. The epidermoidal cell line was cultivated in modified Eagle's Medium (MEM), likewise enriched with 10% (FCS) and the usual quantity of glutamine and Pen/Strep.
(§2) In each case 5×10^4 cells were plated out in T25 bottles, the untreated cells being incubated in analogous conditions as control. The cell count was microscopically determined after 3, 5, 7, 10 and 12 days.

Assay [2] concerns Onco Mouse mammary glands-neoplasms. Description: chemoprevention in transgenic mice (mammary glands-neoplasms). The format is in vivo. As to conditions: 200 μM/ml in drinking water. The protocol:
The chemopreventive properties of 7-OH-1,2-BP were tested on transgenic mice of the Onco Mouse™ type (mammary glands-neoplasms): […]

Assay [3] deals with U 178 MG, TP 410 N, TP 242 MG, TP 336 MG and A 431 cells. In words: growth curves of five tumor cell lines, comparison with coumarin. The format is cell-based, human. The conditions noted are these: corresponding concentrations, up to 12 days. The protocol:
as §1, §2

Assay [4] concerns g-UVW cells. In words: antineoplastic effect on human anaplastic astrocytoma cells (Table 1, Example 3). The format is cell-based. The source says: The process as per Example 2 was repeated with the exception that cells of the 6-UVW line from human anaplastic astrocytoma were used and enriched in DMEM:HAM's F 12 medium (1:1) with L-glutamine and 10% FCS.
The subject of assay [5] is PDGF receptors and EGF system. Description: expression of receptors / EGF system. The conditions noted are these: Seliger et al., unpublished results. The format is cell-based. The source says: (§3) In connection with the neoplastic transformation and increased proliferation rate of glioblastoma cells, two autocrinic loops, the EGF and the PDGF system, are discussed.
For assay [6], the system named is g-CCM cells. Description: growth inhibition of anaplastic astrocytoma cells (Table 1). The format is cell-based, human. As to conditions: 200 μmol/ml, after 10 days.
The subject of assay [7] is PDFG-A gene. In words: transcription (mRNA level). The format is cell-based. As to conditions: Seliger et al., unpublished results; FIG. 8.
Description: as §3

The subject of assay [8] is PDFG-B gene. In words: transcription (mRNA level). The format is cell-based. As to conditions: Seliger et al., unpublished results; FIG. 8.
Description: as §3

Assay [9] has as its system erythroleukemic cells (K 562). Description: photometric cell count / mitochondrial activity. As to conditions: 20 hours, increasing concentrations. The format is cell-based. How it is done:
(§4) Subsequently the cell count was photometrically determined according to Alley M. C. et al., Cancer Research 48, 589-601 (1988). In the process, a colorant is added to the cells that have been mixed with medium, the colorant being so converted by cells with mitochondrial activity that a photometric determination of the cell count is possible.

In assay [10] the test system is bladder tumor cells. Description: photometric cell count / mitochondrial activity. The format is cell-based. The conditions noted are these: 20 hours, increasing concentrations. The protocol:
as §4

In assay [11] the test system is PC-3 cells. Description: cell growth, combination with TNF. The format is cell-based. As to conditions: 7-OH-1,2-BP 500 μM/ml; TNF 1 nM/ml; combination 500 μM/1 nM; 4 days; 3×10^4 cells/well; control 18.58 + 1.05.
Description: Various cell lines (DU-145, PC-3 and LNCaP) from prostate carcinomas were used.
Initial cell count: 3×10^4 cells/well; exposure period: DU-145, PC-3: 4 days; LNCaP: 6 days
Assay [12] concerns DUKX cells. Description: growth inhibition of c-myc-expressing tumor cells. The format is cell-based, Chinese hamsters. The source says: a) DUKX cells (ovarian carcinoma cells from Chinese hamsters) which over-express "c-myc" products, were cultivated according to standard conditions, two comparative groups being grown.

Consider `O=c1ccc2ccc(O)cc2o1` [7-OH-1,2-BP, 7-hydroxy-1,2-benzopyrone], for which the Cell count in assay [1] (after 3 days, control 6) is given as 4 × 10^4; in assay [1] (after 5 days, control 24), 10 × 10^4; in assay [1] (after 7 days, control 45), 3 × 10^4; in [1] (after 10 days, control 56), 12 × 10^4; in assay [1] (after 12 days, control 87), 21 × 10^4. Moreover, the inhibition at 10 µM in [1] (Homo sapiens, A-431, 288 h, 10 μM/ml (Table 2), read-out: % growth inhibition compared with control after 12 days) is 76%. In assay [2] (without substance 9/28), the “Tumor incidence (number of mice)” value is 3/38. Besides, the Tumor incidence % in assay [2] (without substance 32) is recorded as 8%. For the same molecule, the “growth-inhibiting activity (growth curve) versus control” value in [3] is recorded as “developed growth-inhibiting activity”. For the same molecule, the “% Growth inhibition compared with control” value came to 40% in assay [4] (200 μmol/ml, after 10 days) and 44% in [6]. For the same molecule, the “cytostatic effect on human anaplastic astrocytoma cells” value in [4] (Example 3, FIG. 2) was “has a cytostatic effect on human anaplastic astrocytoma cells”. For the same molecule, the “expression of PDGF receptors and of the EGF system” value in assay [5] is recorded as “not influenced”. Moreover, the “transcription of gene coding for PDFG-A (mRNA level)” value in [7] is given as “inhibited”. Further, in assay [8], the “transcription of gene coding for PDFG-B (mRNA level)” value is listed as “inhibited”. The “inhibition of mitochondrial activity” value in assay [9] and in assay [10] was “a dosage-related inhibition of the mitochondrial activity occurs” in each case. Also, in [11], the Cell growth is listed as 11.51 + 0.63. Besides, in [12] (100 μg/ml, 24, 48 and 72 hours, FIG. 10), the “inhibition of cell growth” value is recorded as “dramatic inhibition of cell growth; also recorded: inhibit the cell growth of tumor cells with oncogene-overexpression”. For the same molecule, the “cell growth after removal of substance” value in assay [12] (24 hours, then 48 hours in 7-OH-1,2-BP-free medium, FIG. 11b1) is given as “considerable cell growth”. In addition, the “inhibition of cell growth, second cultivation in presence of substance” value in assay [12] (24 hours, trypsin, then 48 hours in 7-OH-1,2-BP-containing medium, FIG. 11b2) is recorded as “cell growth was virtually completely inhibited”.
